Patent US20250144247A1, “FORMULATIONS TO ENHANCE THE DELIVERY OF GENE THERAPY VECTORS” (priority 2023, published 2025)
Where two headings read alike, the source gives them in different places.

Legend:
[1] = tested on: human airway epithelial cells (HAE); assay: Transepithelial electrical resistance (TEER) of HAE after apical reagent; assay type: cell-based; conditions: apical 5 minutes; LPC 0.1%, EGTA 250 mM, doxorubicin 5 μM, NaCl 3.6%, Infasurf 35 mg/ml
Procedure: The University of Iowa In Vitro Models and Cell Culture Core cultured and maintained human airway epithelial cells (HAE) as previously described (33). Briefly, following enzymatic disassociation of trachea and bronchus epithelia, the cells were seeded onto collagen-coated, polycarbonate transwell inserts (0.4 μm pore size; surface area=0.33 cm^2; Corning Costar, Cambridge, MA). HAE were submerged in Ultroser G (USG) medium for 24 hours (37° C. and 5% CO2) at which point the apical media is removed to encourage polarization and differentiation at an air-liquid interface. Transepithelial electrical resistance was measured using an Ohmmeter […]
Disrupting the epithelial tight junctions allows Ad5-based viral vectors access to their basolaterally localized coxsackie and adenovirus receptor (CXADR) (12). Unless otherwise specified, these studies use the Ad5 serotype. […] First, reagents were applied to the apical surface of HAE for 5 minutes and then TEER was measured using an ohmmeter. […] In separate cultures, Ad-GFP (MOI=250) in 50 μl of DMEM combined 1:1 with the test reagents was applied to the apical surface for 2 hours. 5 days post-treatment, cells were imaged by fluorescence microscopy.

[2] = tested on: human airway epithelial cells (HAE); assay type: cell-based; conditions: for Ad gene transfer: imaged 5 days
[3] = tested on: human airway epithelial cells (HAE); assay: LDH release / integrity of HAE; assay type: cell-based
Procedure: GFP images were acquired using a Keyence All-in-one Fluorescence Microscope BZ-X series (Osaka, Japan). 0.33 cm^2 Transwells were imaged at 2× magnification. GFP expression was quantified by flow cytometry as previously reported (36). Briefly, cells were stained with a fixable LIVE/DEAD stain (Thermo Fisher Scientific, Waltham, MA, USA), lifted in Accutase at 37° C. for 30 minutes, and run through an Attune NxT Flow Cytometer (Thermo Fisher Scientific, Waltham, MA, USA). Cells were treated with the Foxp3/Transcription Factor Staining Buffer Set (Thermo Fisher Scientific, Waltham, MA, USA) according to manufacturer's recommendations and stained for 1 hour at 37° C. with the following antibodies: NGFR (345110; 1:600, BioLegend, San Diego, CA, USA), α-tubulin (NB100-69AF405, 1:300, Novus, Centennial, CO, USA) and CD66c (12-0667-42, 1:600, Invitrogen, Waltham, MA). Expression was gated on live cells. Immunofluorescence staining of pig tissue sections was performed using acetylated α-tubulin (D20G3, 1:200, Cell Signaling Technology, Danvers, MA) or cytokeratin 5 (CK5) (Polyl9055, 1:500, San Diego, CA). Primary antibodies were detected using a goat anti-rabbit Alexa 546 secondary anti-body (A-11035, 1:600, Thermo Fisher Scientific, Waltham, MA).
LDH release was quantified according to the manufacturer's recommendations (LDH-Glo Cytotoxicity Assay, Promega, Madison, WI). Briefly, basolateral media from each condition was collected in a 96 well plate. The LDH detection reagents were mixed in a 1:1 ratio and applied to each well and incubated for 30 minutes. Luminescence was recorded using a SpectraMax i3x plate reader.

[4] = tested on: CFTR anion transport in CF HAE; assay: Ussing chamber short circuit current and conductance of CF HAE; assay type: cell-based, human
measles virus (MeV) = assay: Measles virus (MeV) infection of HAE; assay type: cell-based, human; conditions: wild-type MeV, NaCl (4%)
Procedure: […] After infection, virus inoculums removed. […] After infection, basolateral-infected cultures were returned upright. All MeV infections took place for 4 hours in 37° C. at an MOI of 1 with a total inoculum of 50 μL.

[5] = tested on: human airway epithelial cells (HAE); assay: AAV2.5T-GFP transduction of HAE; assay type: cell-based; conditions: NaCl 4.5%, MOI=100,000 vg/cell, 2 hours, doxorubicin 1 μM pre-treatment, 2 weeks
[6] = tested on: newborn pig tracheal explants; assay: Pig tracheal explant transduction ex vivo; conditions: NaCl 5%, apical 2 hours
Procedure: 0.25 cm^2 tracheal explants from newborn pigs were cultured on Surgifoam (1972, Ethicon, Raritan, NJ) for 3-5 days prior to transduction. Ad5-mcherry (1×10^9 TU), AAVH22-GFP (2×10^10 vg), and GP64 HIV-GFP (1.75×10^7 TU) were applied with or without NaCl (5%) to the apical surface of the trachea by inverting the trachea onto a tissue culture dish containing the viral solution for 2 hours then returned to an upright position on Surgifoam. 5 days post-transduction, tracheal explants were mounted on a microscope slide and imaged for fluorescent expression using confocal microscopy. Expression was quantified using Image J (FIJI) by measuring fluorescence intensity per high power field.
Using freshly excised newborn pig tracheal explants maintained on Surgifoam, Ad-GFP or AAVH22-GFP (a pig-tropic AA V capsid)±NaCl (5%) was applied to the apical surface by inverting the tissue in a culture dish for 2 hours. One week later, tissues were fixed and imaged by confocal microscopy. […] Fluorescence was quantified by transduction area per high power field.

mouse airways = assay: Adenoviral transduction of mouse airways (Ad-luciferase, IVIS); assay type: in vivo, Balb/c mice; conditions: Ad-luciferase intratracheal, 7% NaCl vs 0.9% NaCl, five days
Procedure: 6-8-week-old Balb/c mice were sedated with ketamine/xylazine (87.5+2.5 mg/kg). Ad-CMV-firefly luciferase was delivered intratracheally with 1×10^9 TU formulated with NaCl (0.9% or 7% final) in a 50 ul volume. 5 days later mice were given intraperitoneal D-luciferin (50227, Millipore Sigma, St. Louis, MO) imaged for luminescence expression using the Xenogen IVIS-200.

pig airways = assay: Viral gene transfer in pig airways; assay type: in vivo, newborn pigs
Procedure: Newborn pigs were sedated using isoflurane and viral vector formulated with NaCl (0.9% or 5% final) and acrosolized 2 ml intratracheally using a MADgic Laryngo-Tracheal Mucosal Atomization Device (Teleflex, Morrisville, NC). Doses for each vector for each pig were as follows: 2.8×10^10 infectious genomic units (IGU) of helper-dependent Ad-CMV-GFP and 7×10^8 TU of GP64 HIV-CMV-GFP. Doses were prepared by mixing a 1.8% NaCl or 10% NaCl stock 1:1 with 1 ml of vector. 1 week later, pigs were humanely euthanized, and lungs were analyzed for GFP expression. Lungs were systematically divided and fixed in 4% paraformaldehyde, subjected to a sucrose gradient, and embedded in OCT for cryosectioning. Sectioned lung slides were mounted using DAPI and imaged using a Keyence All-in-one Fluorescence Microscope BZ-X series (Osaka, Japan).
To determine cell types transduced in vivo, a pig model that more closely recapitulates the anatomy and cell biology of human airways was used. Newborn pigs received Ad-GFP via intratracheal delivery with 0.9% NaCl or 5% NaCl. Five days after delivery, lungs were collected and GFP expression was visualized under a fluorescence dissecting microscope (data not shown). Lungs were divided into 20 regions for systematic quantification as previously described (data not shown) and scored based on level of expression (0=no expression, 1=low expression, 2=moderate expression, and 3=high expression) (data not shown).

## [Cl-].[Na+] [NaCl, sodium chloride]
[1]
  transepithelial electrical resistance (TEER): decreased TEER
[2]; 0.9% NaCl (PBS), Ad-GFP MOI=250, apical 2 hours
  Ad gene transfer: did not enhance Ad gene transfer
[2]; 1-7% NaCl, Ad-GFP MOI=250
  transduction of basal, secretory and ciliated cells: all transduced in a dose dependent manner
[2]; 3.6% NaCl vs 3.6% NaGluconate, 3.6% KCl, 0.9% NaCl, 0.9% NaCl + mannitol, 2 h, 5 days
  Ad-GFP transduction efficiency, comparison of osmolytes: greatest increase in transduction efficiency
[2]; Ad-GFP MOI=250 combined 1:1 with reagent, apical 2 hours, LPC 0.1%, EGTA 250 mM, doxorubicin 5 μM, NaCl 3.6%, Infasurf
  Ad gene transfer: conferred remarkable transduction
[2]; Ad-GFP with NaCl 3.6%
  co-treatment time giving maximal expression: 2 h
[2]; NaCl 3.6% adjusted to pH 5, 6, 7, 7.4 and 8, Ad-GFP
  % GFP+ cells across pH range: no significant differences
[2]; NaCl 3.6% or Ad-GFP for 5, 15, 30, 60 or 120 min
  % GFP+ cells versus length of exposure: increased incrementally with increasing temporal exposure
[2]; dose response 1-7% NaCl final, Ad-GFP MOI=250
  Ad transduction efficiency (% GFP+ cells): dose dependent increase in transduction efficiency
[2]; ≤3% NaCl
  benefit on Ad transduction: little benefit on transduction
[3]; 5% NaCl formulation
  effects on HAE integrity in vitro: negative effects on HAE integrity
[3]; highest concentrations of NaCl (5-7%)
  LDH release: increased LDH release
[3]; in vitro HAE
  NaCl doses with ultimate toxicity: > 6%
[4]; CF HAE, Ad-CFTR (MOI=250) and NaCl 3.6%, apical 2 hours, 5 days
  Cl− secretion (short circuit current and conductance, F&I and GlyH): wild-type levels of Cl^− secretion
[4]; CF airway cultures, AAV2.5T-CFTR with NaCl 4.5%, 2 weeks
  anion channel activity responses to F&I and GlyH: increased anion channel activity responses
[4]; primary CF HAE, GP64 HIV-CFTR (MOI=50) in the presence of NaCl 4.5%
  CFTR-dependent anion transport: restored the CFTR-dependent anion transport
Measles virus (MeV)
  MeV infection following apical application: occurred only in the presence of NaCl
[5]
  GFP expression, AAV-GFP (AAV2.5T): significantly higher GFP expression
[6]
  transduction with Ad and AAVH22 (fluorescence per high power field): markedly enhanced
Mouse airways
  luciferase expression (bioluminescence): significantly increased expression in the nose and lung
Pig airways; Ad-GFP intratracheal, NaCl 5% vs 0.9%, five days
  GFP+ score (0-3, 20 lung regions): significantly increased
Pig airways; Ad-GFP, 5% NaCl
  transduction of ciliated cells and CK5+ basal cells: transduction of ciliated cells was observed
  transduction of submucosal glands: high levels of transduction
Pig airways; Ad-GFP, 5% NaCl vs 0.9% NaCl
  transduction of large (>500 μm^2) and small (<500 μm^2) airways: significantly more airway transduction
Pig airways; NaCl 5% vs 0.9% NaCl
  transduction by GP64 HIV-GFP: significantly enhanced transduction
